Measured values: US6645996B1, “Physiologically active substances” (Mercian Corporation and Eisai Co., Ltd., priority 1998, dated 2003)

Assays:
[1] = test system: Endothelial cells derived from human umbilical vein (HUVEC); assay: Inhibitory effect of growth of endothelial cells (MTT method); assay type: cell-based; conditions: three days
Protocol: Endothelial cells derived from human umbilical vein (HUVEC; manufactured by Sanko Junyaku) incubated in an EGM medium (manufactured by Sanko Junyaku) were adjusted to 1×10^4 cells/ml and each 100 μl were separately placed on a 96-well plate. After incubating overnight, 100 μl of medium containing sample were added thereto followed by incubating for three days. The cell numbers at that time were measured by MTT method. That is, 50 μl of PBS solution containing 0.33% of 3-(4,5-dimethylthiazol-2-yl)-2,5-diphenyltetrazolium bromide (MTT) was added thereto and incubation was continued for further 3-4 hours. After the supernatant liquid of the culture was removed, 100 μl of DMSO was added to dissolve a formazane which was formed in the cells and the absorbance at the wave length of 460 nm was measured by use of plate reader. The IC50 value is defined as a concentration that the absorbance was 50% of that observed when no sample was added.

[2] = Safety of VD1207 analogues, intraperitoneal administration over 4 days; assay type: in vivo; parameters: key to Blood (WBC) / Blood (PLAT) / Biochemistry (UN) / Biochemistry (GPT) / Weight (liver) / Weight (kidney) / Weight (lung) / Weight (spleen) / Body weight / Blood (RBC): —: “-” indicates no abnormality; “↑” and “↓” indicate an increase and a decrease, respectively; “↑” and “↓” indicate an increase and a decrease, respectively
Protocol: Each of VD1207B, C, D, E, F and G2 was continuously administered intraperitoneally at each dose of 1 mg/kg and 2 mg/kg over 4 days to examine the safety of VD1207 analogues.

[3] = Solubility (analysis data); assay type: physicochemical
E-selectin = assay: Inhibition of TNFα-induced expression of adhesion molecule E-selectin on endothelial cells; assay type: cell-based, human; conditions: HUVEC, TNFα 1 ng/ml, 4 hours
Protocol: (§1) Endothelial cells derived from human umbilical vein (HUVEC) were cultured on a 96-well plate until they were fallen in a confluent state. The culture broth was removed. After 150 μl of a new culture broth was added to each well, 20 μl of a sample solution was added thereto. After 15 minutes, 30 μl of TNFα was added such that the final concentration became 1 ng/ml and it was incubated at 37° C. for 4 hours in a 5% CO2 incubator. Next, the culture broth was removed and the cells were washed twice with a phosphate buffer (PBS). Further, a PBS solution containing 0.025% glutaraldehyde was added and the well was allowed to stand at room temperature for 6 minutes to fix the cells. After the cells were immobilized, they were washed twice with 200 μl of phosphate buffer (PBSA) containing 0.25% BSA. Thereafter 100 μl of a PBSA solution containing 1 μg/ml of mouse anti-human VCAM-1 (R&D systems) or a mouse anti-human E-selectin antibody (R&D systems) was added to each well. The well was allowed to stand at room temperature for 30 minutes and then the cells were again washed. A PBSA solution containing 100 μl of peroxidase-conjugated goat anti-mouse antibody (Cosmo Bio Co., Ltd.) was added to the well. Then the well was allowed to stand at room temperature for 30 minutes and thereafter the cells were washed. In succession, 100 μl of 3,3*,5,5*-tetramethylbenzyidine (TMB) substrate solution was added to develop a color. Next, the coloring was stopped by 100 μl of 1M phosphoric acid to measure the absorbance at 450 nm.

aorta pieces of rat = assay: Inhibition of capillary formation in rat aorta model (aorta pieces cultured in collagen gel); assay type: cell-based; conditions: 7th day from addition of sample
Protocol: In a method of screening the antiangiogenic effect, the degree of inhibition to the formation of lumens observed when an aortic fragment of a rat is cultured in a collagen gel was selected as an indicator (Nicosia R. F., Lab. Invest., 63, 115, 1990). Also, for the purpose of analyzing the mechanism of action of the antiangiogenic effect of the resulting compound, measurements were made concerning the effect of inhibiting the growth of endothelial cells by using endothelial cells derived from the human umbilical cord vein and the effect of inhibiting the expression of an adhesion molecules on endothelial cells.
The antiangiogenic potency was evaluated by the inhibition of capillary formation in rat aorta model in which aorta pieces of rat were cultured in collagen gel. That is, the aorta excised from male rat of Sprague-Dawley strain (8-12 weeks age) was washed with a Hanks' solution so that fat tissues around there were removed minutely. The aorta was incised to prepare pieces of 2 mm square and they were allowed to stand in a 24-well plate holding the endothelial cells upside. Then, 500 μl of neutralized Type I collagen (Cell Matrix Type I-A; manufactured by Nitta Gelatin) were poured over each well and allowed to stand at room temperature for about 20 minutes in a clean bench to solidify the gel. After gelling, 500 μl of MCDB 131 medium (manufactured by Chlorella Kogyo) were added thereto followed by incubating in a Co2 incubator (5% CO2) at 37° C. On the next day, the culture medium was exchanged with 500 μl of MCDB 131 medium containing the sample and the incubation was continued. And, at the stage of the 7th day from the addition of the sample, numbers of capillaries formed around the aorta were counted. The IC50 value of each sample is defined as a concentration that the number of blood capillaries is 50% of that observed when no sample was added.

VCAM-1 = assay: Inhibition of TNFα-induced expression of adhesion molecule VCAM-1 on endothelial cells; assay type: cell-based, human; conditions: HUVEC, TNFα 1 ng/ml, 4 hours
Protocol: as §1

collagen arthritis model = conditions: Peacock D J., J. Exp. Med. 175, 1135-8, 1992; cited from earlier work
[4] = 2 mg/kg i.p. 4 days, listed as F

Structure (SMILES) | Blood (WBC) ([2]; 1 mg/kg i.p. 4 days) | Weight (lung) ([2]; 1 mg/kg i.p. 4 days) | Biochemistry (GPT) ([2]; 2 mg/kg i.p. 4 days) | Biochemistry (UN) ([2]; 2 mg/kg i.p. 4 days) | Blood (PLAT) ([2]; 2 mg/kg i.p. 4 days) | Blood (RBC) ([2]; 2 mg/kg i.p. 4 days) | Blood (WBC) ([2]; 2 mg/kg i.p. 4 days) | Body weight ([2]; 2 mg/kg i.p. 4 days) | Weight (liver) ([2]; 2 mg/kg i.p. 4 days) | Weight (spleen) ([2]; 2 mg/kg i.p. 4 days) | Solubility in ethyl acetate, chloroform and dimethyl sulfoxide [3] | Solubility in neutral water [3] | further results
CCC1OC12C(O)CC(C(CC(C)C)C(=O)c1cc(C(OC)C(C)C)c(O)c(C=O)c1O)OC2O (single isomer, unassigned) [VD1207 F] | — | — | — | — | — | — | ↓ | — | ↑ | — | soluble | insoluble | IC50 (growth of endothelial cells, absorbance 50% of no sample) ([1]; listed as F): 0.06 µg/mL; Weight of each of the liver, kidney and lung (autoptic findings) ([2]; 1 mg/kg and 2 mg/kg i.p. 4 days): increase; Weight (kidney) ([2]; 1 mg/kg i.p. 4 days, listed as F): ↑; Weight (kidney) [2, 4]: ↑; Weight (lung) [2, 4]: ↑; E-select (IC50 of expression) (E-selectin; listed as F): 0.84 µg/mL; IC50 (number of blood capillaries 50% of that without sample) (aorta pieces of rat; listed as F): 0.067 µg/mL; VCAM-1 (IC50 of expression) (VCAM-1; listed as F): <0.63 µg/mL
CO[C@@H]1[C@H](OC(=O)NC(=O)CCl)CC[C@]2(CO2)[C@H]1[C@@]1(C)O[C@@H]1CC=C(C)C [AGM-470] |  |  |  |  |  |  |  |  |  |  |  |  | Arthritis in a collagen arthritis model (collagen arthritis model): inhibits arthritis
CCCC(C(=O)c1cc(CC(C)C)c(O)c(C=O)c1O)C1CC(O)C2(OC2CC)C(O)O1 (centres unmarked) [VD1207 D] | — | — | — | — | — | — | — | — | ↑ | — | soluble | insoluble | IC50 (growth of endothelial cells, absorbance 50% of no sample) [1]: 0.18 µg/mL; Biochemistry (GPT) ([2]; 1 mg/kg i.p. 4 days): —; Biochemistry (UN) ([2]; 1 mg/kg i.p. 4 days): —; Blood (PLAT) ([2]; 1 mg/kg i.p. 4 days): —; Blood (RBC) ([2]; 1 mg/kg i.p. 4 days): —; Body weight ([2]; 1 mg/kg i.p. 4 days): —; Weight (kidney) ([2]; 1 mg/kg i.p. 4 days): —; Weight (liver) ([2]; 1 mg/kg i.p. 4 days): ↑; Weight (spleen) ([2]; 1 mg/kg i.p. 4 days): —; Weight (kidney) ([2]; 2 mg/kg i.p. 4 days): —; Weight (lung) ([2]; 2 mg/kg i.p. 4 days): —; E-select (IC50 of expression) (E-selectin): 1.40 µg/mL; IC50 (number of blood capillaries 50% of that without sample) (aorta pieces of rat): 0.019 µg/mL; VCAM-1 (IC50 of expression) (VCAM-1): 1.11 µg/mL
